Data on three molecules can be found in US8501725B2, “Synergistic combination of flumetsulam or diclosulam with zinc pyrithione” (Dow Global Technologies LLC, priority 2010, dated 2013).

Format in all cases: cell-based
The test system of experiment [1] is Chlorella sp., Chlorella kessleri, Nostoc commune, Trentepohlia aurea, Tretepohlia odorata, and Calotrix parientina (Cp + To + Ta + Cs + Ck + Nc). Put plainly: Algal efficacy testing, modified ASTM 5589, paint film (Diclosulam + ZPT study). The note with it: four weeks; for % inhibition: at the Total conc given. The method, then: (§1) Sample preparation: A single or blend of biocides was post added into white acrylic latex paint free of biocides to give a maximum total active ingredient/s concentration tested. This paint was then diluted with a biocide free acrylic latex paint to give targeted concentrations for the testing. Depending on the type of biocide blends tested, the total biocides concentrations varies from 200 to 5000 ppm. After biocides addition or dilution, each sample was hand mixed for at least a minute until uniformity is achieved. Each of the paint samples as well as a control sample (containing no biocide) were used to prepare films on black plastic-vinyl chloride/acetate copolymer panels (LENETA, Mahwah, N.J.) using a 3 mil (0.0762 mm) bird bar applicator. The panels were thoroughly dried for at least 2 days avoiding direct exposure to sunlight. Square discs ([…]) were cut out from each panel and were used as the substrate for fungal and algal efficacy tests. This sample size allowed for an agar border when the sample disc was placed into the well of the test plate. Each sample was tested in duplicate
(§2) Test conditions: The appropriate media (BOLD'S 3N for Chlorophytes, BG-11 for Cyanobacteria, and PDA for fungi) were used to support microbial growth. The test plates were maintained at room temp (25° C.-26° C.), in a cycled light-dark environment, for four weeks for algae. Plates for fungal challenge tests were maintained at 30 C for four weeks. At the end of the incubation period the samples were scored for percent area covered by visible microbial growth.
(§3) ASTM 5589 is a standard accelerated test method for determining resistance of various coatings (including paints) to algal defacement. To accommodate for high-throughput screening, this method was scaled down from petri plates to 6-well plates. A single coupon was placed with a pair of sterile forceps at the center of the agar plug (on top) with the painted surface facing upwards. Algal inoculums were prepared by mixing equal concentrations (1×10^6 cfu/ml) and equal volumes (depending on number of samples to be inoculated) of like growing organisms.
(§4) In Diclosulam+various IT synergy study, only two pools of mixed algae were prepared; Gloeocapsa sp. and Oscillatoria sp. grown on BG-11 media and Chlorella sp., Chlorella kessleri, Nostoc commune, Trentepohlia aurea, Tretepohlia odorata, and Calotrix parientina grown on Bold media
(§5) Each well that contains a tested coupon was inoculated with 400 μl of organism mixture (1×10^6 cfu/ml) making sure that the whole surface (paint film as well as the agar surrounding it) was evenly covered. […] The total area covered was evaluated at the end of each week according to percent area covered in 5% increments.
(§6) The SI is calculated based on F. C. […]

Test in experiment [2]: as above
As to conditions: Nostoc commune, 672 h; Cp + To + Ta + Cs + Ck + Nc; in acrylic latex paint, dry film; four weeks; read-out: Total conc (minimum inhibitory concentration chosen for SI). The protocol:
as §1, §2, §3, §4, §5, §6

Experiment [3] deals with Gloeocapsa sp. and Oscillatoria sp. (Gs + Os). Nature of the experiment: Algal efficacy testing, modified ASTM 5589, paint film (both studies). The note with it: four weeks; for MIC: 672 h, read-out: Total conc (minimum inhibitory concentration chosen for SI); for MIC / Total conc (minimum inhibitory concentration chosen for SI): in acrylic latex paint, dry film; for % inhibition: at the Total conc given. The protocol:
as §1, §2, §3
(§7) In Flumetsulam+various IT synergy study, three pool of mixed algae were prepared as the test inoculum, Gloeocapsa sp. and Oscillatoria sp. a mix of cyanobacteria grown on BG-11 media; Chlorella sp., Chlorella kessleri, and Nostoc commune are unicellular chlorphytes that were mixed and grown on Bold media; Trentepohlia aurea, Tretepohlia odorata, and Calotrix parientina are filamentous algae that were mixed and grown on Bold media.
as §4
(§8) Each well that contains a tested coupon was inoculated with 400 μl of organism mixture (1×10^6 cfu/ml) making sure that the whole surface (paint film as well as the agar surrounding it) was evenly covered. The plates were incubated at room temp (25° C.-26° C.) with cyclic exposure to light (OTT-Lite model # OTL4012P, 40 Watt, 26KLumen) and dark phases, for a period of four weeks. The total area covered was evaluated at the end of each week according to percent area covered in 5% increments.
(§9) The SI is calculated based on F. C.
(§10) NE=no end point at the concentration tested that will meet the percent inhibition criteria set in each SI calculation

For experiment [4], the system named is Aa + Tv + An + Pf + Ap + Ch. Put plainly: Fungal efficacy testing, modified ASTM 5590, paint film (Diclosulam + ZPT study, single pool of all fungi). As to conditions: four weeks; for % inhibition: at the Total conc given; for Total conc: in acrylic latex paint, dry film, 30 C. The protocol: as §1, §2
ASTM 5590 is a standard accelerated test method for determining resistance of various coatings (including paints) to fungal defacement. To accommodate for high-throughput screening, this method was scaled down from petri plates to 6-well plates. To set up the test, an agar plug was placed at the bottom of each well of the sterile 6-well plate. A single coupon was placed with a pair of sterile forceps at the center of the agar plug (on top) with the painted surface facing upwards. Fungal inoculums were prepared by mixing equal concentrations (1×10^6 cfu/ml) and equal volumes (depending on number of samples to be tested) of like growing organisms. For Flumetsulam+various IT synergy study, three pools of mixed fungi were prepared as the test inoculum. Cladosporium herbarum was mixed with Aureobasidium pullulans; Aspergillus niger was mixed with Penicillium funiculosum and Alternaria alternata was mixed with Trichoderma viride. For Diclosulam+various IT synergy study, all above fungi were mixed as a single pool. […] The total percent area covered was evaluated and recorded at the end of each week after the 2nd week and recorded in increments of 5%.
as §6

Experiment [5] concerns Trentepohlia aurea, Tretepohlia odorata, and Calotrix parientina (Cp + To + Ta). Put plainly: Algal efficacy testing, modified ASTM 5589, paint film (Flumetsulam + ZPT study). As to conditions: four weeks; for % inhibition: at the Total conc given; for Total conc (minimum inhibitory concentration chosen for SI): in acrylic latex paint, dry film, 25-26 C, light-dark. The method, then:
as §1, §2, §3, §7, §8, §9, §10

The subject of experiment [6] is Chlorella sp., Chlorella kessleri, and Nostoc commune (Cs + Ck + Nc). The experiment is described as above. As to conditions: four weeks; for % inhibition: at the Total conc given. The protocol:
as §1, §2, §3, §7, §8, §9, §10

Experiment [7] concerns Aspergillus niger mixed with Penicillium funiculosum (AnPf). Nature of the experiment: Fungal efficacy testing, modified ASTM 5590, paint film (Flumetsulam + ZPT study). As to conditions: four weeks; for % inhibition: at the Total conc given. The method, then: as §1, §2
(§11) ASTM 5590 is a standard accelerated test method for determining resistance of various coatings (including paints) to fungal defacement. To accommodate for high-throughput screening, this method was scaled down from petri plates to 6-well plates. To set up the test, an agar plug was placed at the bottom of each well of the sterile 6-well plate. A single coupon was placed with a pair of sterile forceps at the center of the agar plug (on top) with the painted surface facing upwards. Fungal inoculums were prepared by mixing equal concentrations (1×10^6 cfu/ml) and equal volumes (depending on number of samples to be tested) of like growing organisms. For Flumetsulam+various IT synergy study, three pools of mixed fungi were prepared as the test inoculum. Cladosporium herbarum was mixed with Aureobasidium pullulans; Aspergillus niger was mixed with Penicillium funiculosum and Alternaria alternata was mixed with Trichoderma viride. For Diclosulam+various IT synergy study, all above fungi were mixed as a single pool. Each well was inoculated with 400 μl of organism mixture (1×10^6 cfu/ml) making sure that the whole surface (paint film as well as the agar surrounding it) was evenly covered. The plates were incubated at 30° C. in presence of moisture, for a period of four weeks. The total percent area covered was evaluated and recorded at the end of each week after the 2nd week and recorded in increments of 5%.
as §9, §10

In experiment [8] the test system is Cladosporium herbarum mixed with Aureobasidium pullulans (ApCh). Described as above. As to conditions: four weeks; for % inhibition: at the Total conc given. The protocol: as §1, §2, §11, §9, §10
The subject of experiment [9] is Alternaria alternata mixed with Trichoderma viride (AaTv). The description is as above. As to conditions: four weeks; for % inhibition: at the Total conc given. The method, then: as §1, §2, §11, §9, §10
Setting [10] is: in acrylic latex paint, dry film, 30 C.

Where two headings read alike, the source gives them in different places.

As to `CCOc1nc(F)cc2nc(S(=O)(=O)Nc3c(Cl)cccc3Cl)nn12` [Diclosulam, N-(2,6-dichlorophenyl)-5-ethoxy-7-fluoro[1,2,4]triazolo[1,5-c]pyrimidine-2-sulfonamide], the % inhibition (as a rule, the percentage by which the read-out fell short of the control) was 80% in experiment [1]; 100% in experiment [3] (Diclosulam and ZPT study); 0% in experiment [4]. Moreover, the MIC was 3500 µg/mL in experiment [2]; 438 µg/mL in [3] (Diclosulam and ZPT study). Moreover, the Total conc in experiment [4] was found to be 3500 ppm.
Regarding `Cc1ccn2nc(S(=O)(=O)Nc3c(F)cccc3F)nc2n1` [Flumetsulam, N-(2,6-difluorophenyl)-5-methyl[1,2,4]triazolo[1,5-a]pyrimidine-2-sulfonamide], the MIC was determined as 2620 µg/mL in experiment [3] (Flumetsulam and ZPT study); 3500 µg/mL in experiment [6] (Nostoc commune, 672 h, in acrylic latex paint, dry film, 25-26 C, light-dark, read-out: Total conc (minimum inhibitory concentration chosen for SI)); 3500 µg/mL in [7] (Aspergillus niger, 672 h, in acrylic latex paint, dry film, 30 C, read-out: Total conc (minimum inhibitory concentration chosen for SI)); 3500 µg/mL in experiment [8] (Cladosporium herbarum, 672 h, in acrylic latex paint, dry film, 30 C, read-out: Total conc (minimum inhibitory concentration chosen for SI)); 3500 µg/mL in experiment [9] (Alternaria alternata, 672 h, in acrylic latex paint, dry film, 30 C, NE = no end point at the concentration tested, read-out: Total conc (minimum inhibitory concentration chosen for SI)). Also, the “% inhibition” value in experiment [3] (Flumetsulam and ZPT study) is 0%; in [5] it was 100%; in experiment [6], 90%; in experiment [7] it was 0%; in [8], 25%; in [9] it was 0%. Further, in experiment [5], the “Total conc (minimum inhibitory concentration chosen for SI)” value stood at 2625 ppm.
zinc pyrithione [ZPT]: the “% inhibition” value in experiment [1] worked out at 100%; in experiment [3] (Diclosulam and ZPT study) it was 100%; in experiment [3] (Flumetsulam and ZPT study), 100%; in experiment [5], 100%; in experiment [6] it was 100%; in experiment [7], 100%. Besides, the entries for the “% inhibition” value in experiment [8], in experiment [9] and in experiment [4] were 100%, 50% and 0%, respectively. In addition, the “Total conc (minimum inhibitory concentration chosen for SI)” value worked out at 625 ppm in experiment [1] (in acrylic latex paint, dry film); 625 ppm in [3] (Diclosulam and ZPT study); 625 ppm in [3] (Flumetsulam and ZPT study); 625 ppm in experiment [5]; 625 ppm in [6] (in acrylic latex paint, dry film, 25-26 C, light-dark); 625 ppm in experiment [7] (setting [10]). The “Total conc (minimum inhibitory concentration chosen for SI)” value in [8] (setting [10]) is 625 ppm; in experiment [9] (in acrylic latex paint, dry film, 30 C, NE = no end point at the concentration tested), 5000 ppm. The Total conc in experiment [4] came to 5000 ppm.
